Here are results for eight compounds from US5180840A, “Process for preparing analogs of artemisinin” (SRI International, priority 1991, dated 1993).

For experiment [1], the system named is D-6 African P. falciparum clone. The experiment is described as follows: in vitro testing against P. falciparum, D-6 African clone. Type of experiment: cell-based. From the text:
(§1) The analog 1 was sent to Walter Reed Army Institute of Research (WRAIR) for in vitro testing against P. falciparum using modifications of the procedures of Desjardins et al, 1979, and Milhous et al, 1985, (Desjardins, R. E., C. J. Canfield, D. E. Haynes, and J. D. Chulay, Antimicrob. Angents Chemother., Vol. 16, 710-718 (1979); Milhous, W. K., N. F. Weatherly, J. H. Bowdre, and R. E. Desjardins, Antimicrob. Agents Chemother. Vol. 27, 525-530, 1985.) to assess the intrinsic activity of compound 1 as an anti-malarial drug relative to simultaneous known controls such as chloroquine, mefloquine; pyrimethamine, sulfadoxine, tetracycline, qinghaosu or quinine. Since some anti-malarials are more static than cidal in action, it is necessary to extend the incubation period to assess the effects of such drugs on parasite growth rates. In order to insure exponential parasite growth and maximum uptake of radioisotope throughout the extended incubation, reduced starting parasitemias (0.2%) and reduced red cell hematocrits (1.0%) are required. As a result, drugs which are actively incorporated into erythrocytes (such as chloroquine or qinghaosu) will have slightly lower 50% inhibitory concentrations than in other assay systems employing higher red cell hematocrits. Except for the contribution from the 10% normal pooled human plasma and added 10^-10 M (0.014 ng/ml) PABA, the culture medium is folate-free. The trace amount of PABA insures exponential growth of the sulfonamide-susceptible parasite clone without antagonizing the activity of antifol anti-malarials.
(§2) All test compounds are solubilized in DMSO and diluted 400-fold (to rule out a DMSO effect) in culture medium with plasma for a starting concentration of at least 12,500 ng/ml. Drugs are subsequently diluted fivefold using the Cetus Pro/Pette™ system utilizing a range of concentrations from 0.8 ng/ml to 12,500 ng/ml. Fifty percent inhibitory concentrations are reported in ng/ml.
(§3) Table 1 summarizes differences in the susceptibility profiles of the two control P. falciparum clones (Oduola, A. M. J., N. F. Weatherly, J. H. Bowdre, R. E. Desjardins, Thirty-second Annual Meeting, American Society of Tropical Medicine and Hygiene, San Antonio, Tex., Dec. 4-8, 1983) and provides results of testing. The W-2 Indochina P. falciparum clone is resistant to chloroquine, pyrimethamine and sulfadoxine but […]. The D-6 African P. falciparum clone is susceptible to chloroquine, pyrimethamine and sulfadoxine but […].

In another experiment the test system is P. falciparum. Nature of the experiment: in vitro testing against P. falciparum (two strains together / assay medium). It counts as cell-based.
Source text: as §1, with “Except for the contribution from the 10% normal pooled human plasma and added 10^-10 M (0.014 ng/ml) PABA, the culture medium is folate-free. The trace amount of PABA insures exponential growth of the sulfonamide-susceptible parasite clone without antagonizing the activity of antifol anti-malarials.” left out

The subject of experiment [2] is W-2 Indochina P. falciparum clone. The experiment is described as follows: in vitro testing against P. falciparum, W-2 Indochina clone. The following applies: for IC50: Plasmodium falciparum. It counts as cell-based.
Source text: as §1, §2, §3

Experiment [3] has as its system D-6 African P. falciparum clone. The following applies: D-6 African clone; cited from earlier work.
Experiment [4] relates to W-2 Indochina P. falciparum clone. To be noted: W-2 Indochina clone; cited from earlier work.
The mark [5] stands for this setting: Plasmodium falciparum, D-6 African clone (strain head not given; assigned), read-out: IN VITRO ED50 (fifty percent inhibitory concentration).
[6] abbreviates: Plasmodium falciparum, D-6 African clone (strain head not given; assigned), read-out: IN VITRO ED50 (fifty percent inhibitory concentration), × 10^-9 M.

Molecules are shown by their SMILES. Like-named read-outs stand apart in the source and are kept apart here.

On to `C[C@@]12CC[C@H]3CCC[C@H]4CC(=O)O[C@H](O1)[C@@]34OO2` (relative stereo) [Compound 1, (±)-13,14-desmethylartemisinin], for which the values for the IC50 in experiment [1] (setting [5]) and in experiment [1] (setting [6]) were 21.1 ng/mL and 83 nM, respectively. For the same compound, in the experiment on P. falciparum (data of Table 1), the “antimalarial activity (in words)” value is reported as “highly active antimalarial agent”. In addition, the antimalarial potency result with P. falciparum (varies with strain, versus the other five compounds) is “still in the nanogram range”. Also, in experiment [2] (W-2 Indochina strain), the “potency relative to chloroquine” value is on record as “about three times as potent as the classical antimalarial agent chloroquine”. In addition, the “activity relative to the natural product Qinghaosu” value in experiment [2] (W-2 Indochina strain, fraction as active as Qinghaosu) is listed as “approximately 1/2”.
For the compound `C[C@@H]1CC[C@H]2[C@@H](C)C(=O)O[C@@H]3O[C@@]4(C)CC[C@@H]1[C@]32OO4` [Qinghaosu, artemisinin], the IC50 was 3.09 ng/mL in experiment [1] (setting [5]) and 11 nM in experiment [1] (setting [6]).
Taken in the same sequence, the figures for `C[C@@H]1CC[C@H]2[C@@H](C)C(O)O[C@@H]3O[C@@]4(C)CC[C@@H]1[C@]32OO4` (stereo partly drawn) [Dihydro-quinghaosu] were 0.47 ng/mL and 1.68 nM.
On to `CCc1nc(N)nc(N)c1-c1ccc(Cl)cc1` [pyrimethamine], for which the entries for the “susceptibility of the clone” value in experiment [3] and in experiment [4] were “susceptible” and “resistant”, respectively.
Regarding `CCO[C@H]1O[C@@H]2O[C@@]3(C)CC[C@H]4[C@H](C)CC[C@@H]([C@H]1C)[C@@]24OO3` [Arteether], the “IN VITRO ED50 (fifty percent inhibitory concentration)” value amounted to 1.87 ng/mL in experiment [1] (D-6 African clone (strain head not given; assigned)) and 1.23 ng/mL in experiment [2] (W-2 Indochina clone (strain head not given; assigned)). Further, the IC50 in experiment [1] (D-6 African clone (strain head not given; assigned), read-out: IN VITRO ED50 (fifty percent inhibitory concentration), × 10^-9 M) stood at 6 nM.
As for `OC(c1cc(C(F)(F)F)nc2c(C(F)(F)F)cccc12)C1CCCCN1` (stereo not drawn) [Mefloquine], the IC50 was 22.2 ng/mL in experiment [1] (setting [5]) and 53.7 nM in experiment [1] (setting [6]). For the same compound, the “susceptibility of the clone” value is recorded as “resistant” in experiment [3] and “susceptible” in experiment [4].
With `COc1ncnc(NS(=O)(=O)c2ccc(N)cc2)c1OC` [sulfadoxine], the “susceptibility of the clone” value in experiment [3] was “susceptible”; in experiment [4] it was “resistant”.
Regarding `CCN(CC)CCCC(C)Nc1ccnc2cc(Cl)ccc12` (stereo not drawn) [Chloroquine], the IC50 in experiment [1] (Plasmodium falciparum, read-out: IN VITRO ED50 (fifty percent inhibitory concentration), ng/ml) worked out at 5.91 ng/mL; in experiment [1] (Plasmodium falciparum, read-out: IN VITRO ED50 (fifty percent inhibitory concentration), × 10^-9 M) it was 11.5 nM; in experiment [2] (read-out: IN VITRO ED50 (fifty percent inhibitory concentration), ng/ml) it was 26.8 ng/mL; in experiment [2] (read-out: IN VITRO ED50 (fifty percent inhibitory concentration), × 10^-9 M) it was 52.1 nM. The “susceptibility of the clone” value in experiment [3] is “susceptible”; in experiment [4] it was “resistant”.
